Measurements: patent publication US20200291082A1, “PREVENTION AND TREATMENT OF GRAFT-VERSUS-HOST-DISEASE WITH DEFENSINS” (priority 2017, published 2020)
“Also recorded” adds a separate entry of the source. No end group written: not given here.

Assays:
[1] = tested on: Dextran Sodium Sulphate induced colitis; assay: prophylactic murine 10-day oral Dextran Sodium Sulphate induced colitis model, s.c. and i.v. hBD2 versus i.p. mouse anti TNF-α (Example 1); type: in vivo, C57BL/6 mice; details: for histological score of distal colon: FIG. 9; for disease activity index (DAI): 10 days
Method: Anti-inflammatory effect of s.c. and i.v. administration of hBD2 versus intraperitoneal mouse anti TNF-α in a prophylactic, murine, 10-day, oral Dextran Sodium Sulphate induced colitis model.
70 male C57BL/6 mice housed in groups of five per cage were allocated to 7 different treatment groups. All animals had their drinking water supplemented with DSS 2% for 7 days to induce colitis resulting in significant inflammation and injury of the colonic tissue. The animals were treated with hBD2 dosed intravenously in the tail vein or subcutaneously under the dorsal skin, with mouse anti TNF-α intraperitoneally or PBS as vehicle for 10 days.
(§1) A disease activity index (DAI) scoring system was applied for clinical assessment (FIG. 7). The animals were sacrificed on day 10 and colon removed for histological assessment employing a histological scoring system (FIG. 8).

[2] = tested on: Trinitrobenzene Sulfonic Acid induced colitis; assay: prophylactic murine 8-day Trinitrobenzene Sulfonic Acid induced colitis model (Example 3); type: in vivo, BALB/cByJ mice
Method: Anti-inflammatory effect of s.c. administration of hBD2 versus s.c. prednisolone in a prophylactic murine, 8-day Trinitrobenzene Sulfonic Acid induced colitis model.
105 male BALB/cByJ mice housed in groups of five per cage were allocated to 7 different treatment groups. Colitis was induced by intracolonic administration of trinitrobenzene sulfonic acid on day 0 under light anaesthesia resulting in significant inflammation and injury of the colonic tissue. The animals were treated with hBD2 at four different dosing levels once daily (1 mg/kg, 0.3 mg/kg, 0.1 mg/kg, and 0.03 mg/kg) or Prednisolone 10 mg/kg once daily dosed subcutaneously under the dorsal skin or PBS as vehicle for 7 days.
as §1

[3] = tested on: house dust mite model of allergic asthma; assay: therapeutic intranasal versus oral hBD2 in murine house dust mite model of allergic asthma, lung histopathology and cytokines (Example 11); type: in vivo, BALB/c mice
Method: To determine and assess the efficacy of IN versus oral therapeutic intervention with administration of defensins in a murine house dust mite model of allergic asthma.
Treatment regime: Female 7-10 weeks old BALB/c mice randomly allocated into 4 study groups one day prior to study start were subcutaneously (SC) sensitized to house dust mite (100 μg HDM in 200 μL saline plus Freund's complete adjuvant in 0.9% saline). Mice were intranasally (IN) challenged with HDM on day 14 (HDM 25 μg in 50 μL of saline). hBD2 was administered IN or orally (0.4 mg/kg TID IN; 0.4 mg/kg TID orally, 50 μL phosphate buffered saline) on day 14. The initial dose was administered 60 minutes prior to challenge, and the subsequent doses approximately 6 hours apart.
Lung tissue sampling: Lungs were removed from the thorax, snap frozen in liquid nitrogen and stored frozen at −80 degrees Celsius until analysis of cytokine concentration of IL-4, IL-5, IL-8 (KC), IL-9 and IL-13 in lung homogenate by ELISA. Lungs were inflated in situ in 10% buffered formalin, removed from thorax, placed individually in 10% buffered formalin, paraffin embedded in toto, sectioned and H&E/PAS stained.
Blood sampling: All terminal blood samples were collected via jugular vein bleeds. Blood was sampled to Li-heparin tubes, put on ice and immediately centrifuged at 4° C. Plasma was separated and stored at -80° C. until the potential SCFA analysis. Lung tissue sampling: The lungs were exposed and excised by gently opening the thorax and by cutting down either side of the sternum and ribs and trimming back. Lungs from the first 6 animals per group were removed from thorax, snap frozen in liquid nitrogen and stored frozen at −80° C. until analysis of cytokine concentration by ELISA.
Lungs from the other 8 animals per group were inflated in situ with 10% buffered formalin, removed from thorax, placed individually in 10% buffered formalin, paraffin embedded in toto, sectioned and H&E/PAS stained. The paraffin blocks were retained for the IHC analysis.
Read-Outs • Histopathology (H&E; PAS) (N=8/group; total N=32) • Cytokines in lung tissue homogenates (IL-4, IL-5, IL-8 (KC), IL-9 and IL-13) (N=6/group; total N=24)
Cellular influx (mononuclears, eosinophils, neutrophils) was assessed semi-quantitatively on H&E stained slides separately for peri-bronchial/bronchiolar and perivascular space as follows: • 0 absent • 1 few scattered inflammatory cells • 2 larger aggregates • 3 marked accumulation of cells
Overall score for inflammation was calculated as the sum of all individual scores.

[4] = tested on: acute graft versus host disease following stem cell transplantation; assay: prophylactic oral hBD-2 in murine model of acute graft versus host disease following stem cell transplantation (Example 13); type: in vivo, BALB/c mice; details: for IL-1β from myeloid cells: CD11c+ dendritic cells and CD11b+ Ly6FG− cells; for infiltration with CD45+ leucocytes (FACS analysis): lamina propria of colon (FIG. 50: colon and small intestine); for intestinal T cell and myeloid cell infiltration: lamina propria of the colon (FIG. 51: colon and small intestine)
Method: To determine and assess the efficacy of prophylactic treatment with oral hBD-2 in a murine model of acute graft versus host disease following stem cell transplantation.
Treatment regime: 12 female BALB/c mice were irradiated with 4.5 Gy (2×498 sec) at intervals of at least 4 hours on day 0. Bone marrow was harvested: hind limbs harvested from 2 female WT C57BL/6 mice aseptically. Skeletal muscle was removed and epiphysis cut away. Lumen of bone flushed with PBS and cells pelleted and taken up. Harvest of T-cells: spleens from 2 female WT C57BL/6 mice were meshed through a 100 μM cell strainer into a PBS filled dish. Cells were taken up in PBS and transferred into a 50 mL falcon tube and spun down. Cells were taken up in 1 mL PBS and 20 μL of CD4 microbead+20 μL CD8 microbeads per spleen added for incubation for 20 min at 4 degrees C. Cells were washed with PBS and applied to MACS separation in order to positively select CD4+ and CD8+ cells. Positively selected T-cells were counted and taken up. Transplantation: directly after the second irradiation, all WT BALB/c recipient mice were injected with 5×1.000.000 BM cells (50 μL) i.v. into the retroorbital venous plexus under isoflurane anesthesia. 15 BALB/c mice were treated with 1.2 mg of hBD2/kg BW/day in 100 μL PBS per day vial oral gavage from day 0-10.
15 BALB/c mice received vehicle 100 μL PBS per day via oral gavage from day 0-10.
The mice were weighed daily for the initial 7 days and survival was monitored for 100 days.

[5] = oral hBD2 1.2 mg/kg/day day 0-10, 15 mice
[6] = oral hBD-2 for 10 days versus PBS

human beta defensin 2 (GIGDPVTCLKSGAICHPVFCPRRYKQIGTCGLPGTKCCKKP; not fully specified (bridges); ends and bridges not checked; listed as Homo sapiens) [hBD2]
histological score of distal colon ([1]; hBD2 0.1 mg/kg compared with mouse anti TNF-α): statistically significant superiority | histological score of distal colon ([1]; subcutaneous compared with i.v. hBD2 administration): superiority over i.v. administration | disease activity index (DAI) ([1]; hBD2 intravenous administration): significant reduction of DAI | histology score ([1]; hBD2 s.c. twice daily, colon day 10): highly statistical significant effect on histology score | disease activity index (DAI) ([1]; hBD2 subcutaneous route, once or twice daily): most significant effect | histological score ([2]; FIG. 13, 0.03 and 0.1 mg/kg hBD2 (Group E and F), on par with prednisolone 10 mg/kg): statistical significant effect | histological score ([2]; Prednisolone 10 mg/kg s.c. once daily, hBD2 at 0.1, 0.3 and 1 mg/kg s.c. once daily): highly statistically significant clinical effect on histological score | body weight ([2]; hBD2 0.03 and 0.1 mg/kg OD s.c.): highly statistically significant increase in body weight | IL-9 level in lung tissue homogenates ([3]; IN administration): Significant effects | IL-13 level in lung tissue homogenates ([3]; IN administration): Significant effects | histological inflammation of lung tissue ([3]; hBD2 both oral and intranasal 0.4 mg/kg TID on day 14, versus HDM challenged vehicle): effectively inhibited the increase in histological inflammation of lung tissue | IL-4 level in lung tissue homogenates ([3]; oral administration): Significant effects | IL-9 level in lung tissue homogenates ([3]; oral administration): Significant effects | IL-13 level in lung tissue homogenates ([3]; oral administration): Significant effects | Th1 cytokine production (TNF-α and IFN-γ in CD4 and CD8 T cells) ([4]; FACS analysis of the spleen): reduced Th 1 cytokine production; also recorded: reduced Th1 cytokine production | neutrophils ([4]; FACS analysis of the spleen): Reduced proportion of neutrophils; also recorded: reduced number of neutrophils | IL-1β from myeloid cells ([4]; FACS analysis of the spleen): decrease the production of IL-1β | IL-1β from myeloid cells ([4]; FACS analysis of the spleen, listed as hBD-2): reduction of IL-1β from myeloid cells; also recorded: Reduced IL-1β production | weight loss ([4]; first 7 days following bone marrow transplantation): lost statistically significantly less weight | survival (Kaplan-Meyer plot) ([4]; hBD2 1.2 mg/kg/day day 0 to day 10 versus vehicle, n=15): dramatically increased survival | microarray analysis of colon samples ([4]; hBD-2 treated group versus PBS): decreased inflammation, leucocyte and myeloid cell migration and tissue remodelling | infiltration with CD45+ leucocytes (FACS analysis) [4]: reduced the infiltration | infiltration with CD45+ leucocytes (FACS analysis) ([4]; listed as hBD-2): Reduced CD45+ leucocyte cell migration | intestinal T cell and myeloid cell infiltration [4]: reduced | intestinal T cell and myeloid cell infiltration ([4]; listed as hBD-2): Reduction of intestinal T cell and myeloid cell infiltration | mice still alive by day 100 [4, 5]: 8 mice | share of treated mice that had died by day 35 [4, 5]: less than 30% | treated mice that had died by day 35 ([4]; oral hBD2 1.2 mg/kg/day day 0-10, 15 mice, all 15 vehicle mice had died by day 35): 4 | histology score of the colon [4, 6]: highly statistically lower; also recorded: statistically significant reduction of histology score | histology score of the liver [4, 6]: highly statistically lower; also recorded: statistically significant reduction of histology score | histology score of the small intestine [4, 6]: highly statistically lower; also recorded: statistically significant reduction of histology score | TNF-α concentration ([4]; serum (FIG. 52a)): reduction | IL-6 concentration ([4]; serum (FIG. 52b)): reduction | IL-10 concentration ([4]; serum (FIG. 52c)): increased concentration of IL-10
